Key:
[1] = Acute toxicity, single intraperitoneal administration, 48 hours (Litchfield and Wilcockson); type: in vivo, white mice; conditions: intraperitoneal, white mice, P=0.05; for LD50: 2880 min; for LD50 at 48 h: mouse, in vivo, ip
Procedure: The acute toxicity of the proposed preparation was tested on white mice weighing 19 to 20 g, by single intraperitoneal administrations of 1.5- and 10-percent colloidal solutions of the anticonvulsant in a 0.5-percent solution of carboxymethyl cellulose. The animals were observed during 48 hours. In order to establish the median lethal dose (LD50), the experimental data was statistically processed using the Litchfield and Wilcockson techniques. Milontin and zarontin were analyzed in the same way.

[2] = Neurotoxicity: rightening, gait, stance, muscle tone and equilibrium tests; type: in vivo; conditions: P = 0.05; for TD50: in vivo, read-out: TD50 (mean neurotoxic dose)
Procedure: The neurotoxicity levels were determined by conducting rightening, gait, stance, muscle tone and equilibrium tests.

[3] = Duration of urethane-induced sleep; type: in vivo; conditions: milontin 100 mg/kg; for Average Duration of Urethane-Induced Sleep: P = 0.05, urethane 1,000 mg/kg, proposed preparation 100 mg/kg, zarontin 150 mg/kg
From the text: (§1) Nembutal was used as a trunk narcotic, and urethane as a cortical narcotic.

[4] = Duration of Nembutal-induced sleep; type: in vivo; conditions: for Average Duration of Nembutal-Induced Sleep: P = 0.05, Nembutal 40 mg/kg, proposed preparation 100 mg/kg, zarontin 150 mg/kg, milontin 100 mg/kg
From the text: as §1

Camphor convulsions test = conditions: for ED50: Mus musculus, read-out: ED50 (camphor)
Procedure: (§2) The anticonvulsant action of the proposed preparation was tested on mice weighing 19 to 25 g and rats weighing 120 to 150 g by conducting maximum electroshock, corazol, strychnine, camphor, nicotine and arecoline tests.

[5] = Maximum electroshock test
Procedure: as §2

animal or person = assay: animal or person
Procedure: The general effect of the proposed preparation was tested on white mice, rats and rabbits.

[6] = Clinical comparison in petit mal epilepsy; type: in vivo, human (patients)

Procedure for Corazol convulsion test: as §2

CN1C(=O)CC(c2ccccc2)C1=O (stereo not drawn) [Milontin, N-methyl-α-phenylsuccinimide]
LD50 [1]: 950 (792 to 1,140) mg/kg
LD50 at 48 h [1]: 950 mg/kg
TD50 (mean neurotoxic dose) [2]: 340(278 to 416) mg/kg
TD50 [2]: 340 mg/kg
Average Duration of Urethane-Induced Sleep [3]: 16.5 ± 4.6 min
prolongation of duration of urethane-induced sleep [3]: more than 3 times
Average Duration of Nembutal-Induced Sleep [4]: 139.2 ± 33.2 min
prolongation of the hypnotic action of Nembutal ([4]; in words): statistically significant prolongation
antistrychnine effect, ranking of the three drugs (in words): at its lowest
ED50 (strychnine) (strychnine): 230 mg/kg
protection index I=TD50/ED50, Strychnine (strychnine): 1.47
protection index PI (mean lethal dose / mean effective dose), Strychnine (strychnine): 4.14
ED50 (Corazol convulsion test; Mus musculus, read-out: ED50 (corazol)): 87 mg/kg
protection index I=TD50/ED50, Corazol (Corazol convulsion test; corazol): 3.91
protection index PI (mean lethal dose / mean effective dose), Corazol (Corazol convulsion test; corazol): 10.9
ED50 (Camphor convulsions test): 99 mg/kg
protection index I=TD50/ED50, Camphor (Camphor convulsions test; camphor): 3.44
protection index PI (mean lethal dose / mean effective dose), Camphor (Camphor convulsions test; camphor): 9.6
ED50 ([5]; Mus musculus, read-out: ED50 (Electroshock)): 64 mg/kg
protection index I=TD50/ED50, Electroshock ([5]; electroshock): 5.3
protection index PI (mean lethal dose / mean effective dose), Electroshock ([5]; electroshock): 14.85
anticonvulsant activity in maximum electroshock test ([5]; in words): anticonvulsant activity was only exhibited by the proposed preparation and milontin

CCCC(C)C1(CC)C(=O)NC(=O)NC1=O (stereo not shown) [Nembutal]
Average Duration of Nembutal-Induced Sleep [4]: 40.8 ± 23.04 min

CCOC(N)=O [Urethane]
Average Duration of Urethane-Induced Sleep [3]: 3.3 ± 1.4 min

CCC1(C)CC(=O)NC1=O (stereo not drawn) [Zarontin, α-methyl, ethylsuccinimide]
dose inducing sleep (animal or person; intraperitoneal): ≥ 900 mg/kg
dose causing tremors of the hind extremities (animal or person; mouse, in vivo, ip): 700 mg/kg
LD50 [1]: 1,325 (1,200 to 1,462) mg/kg
LD50 at 48 h [1]: 1320 mg/kg
TD50 (mean neurotoxic dose) [2]: 590(513 to 678) mg/kg
TD50 [2]: 590 mg/kg
Average Duration of Urethane-Induced Sleep [3]: 4.7 ± 2.1 min
Average Duration of Nembutal-Induced Sleep [4]: 76.9 ± 28.9 min
ED50 (strychnine) (strychnine): 152 mg/kg
ED50 (Camphor convulsions test): 131 mg/kg

CC1(c2ccccc2)CC(=O)N(CN2CCOCC2)C1=O (stereo not shown) [morpholep]
patients with improvement [6]: 12 out of 14

CCC1(C)CC(=O)NC1=O (stereo not shown) [pyknolepsin]
patients with improvement [6]: 12 out of 14

CCC1(C)CC(=O)NC1=O (stereo not shown) [suxilep]
patients with improvement [6]: 10 out of 12
